How the values were obtained:
[1] = Solid-liquid equilibrium temperature; conditions: Crystal, visual observation
[2] = Liquid-liquid equilibrium temperature; conditions: Nematic liquid crystal, visual observation

CCCCCOc1ccc(-c2ccc(C#N)cc2)cc1 [4'-pentoxy-4-cyanobiphenyl]
Conditions	Liquid-liquid equilibrium temperature, [2] [K]	Solid-liquid equilibrium temperature, [1] [K]
399 kPa	341.58	326.84
1399 kPa	341.96	327.21
2400 kPa	342.38	327.52
3001 kPa	–	327.72
3400 kPa	–	327.86
3401 kPa	342.75	–
3901 kPa	342.91	–
4401 kPa	343.13	328.2
4902 kPa	343.32	–
5401 kPa	–	328.54
5402 kPa	343.51	–
6402 kPa	–	328.84
6403 kPa	343.9	–
7403 kPa	–	329.23
7404 kPa	344.3	–
8403 kPa	–	329.55
8404 kPa	344.7	–
9405 kPa	345.1	329.86
10005 kPa	345.33	330.08

Reference: the NIST ThermoML archive (doi:10.1016/j.jct.2012.11.026)
